Legend:
[1] = tested on: Staphylocoecus aureus (JCM-2151); assay: Viability assay in Mueller-Hington Broth; format: cell-based, Staphylococcus aureus
Method: (§1) Precultures of test microorganisms to be used in the tests described hereunder were prepared in such a manner that: from the frozen preservation of dispersions of test microorganisms, a loop of the respective strains of the microorganisms were taken out and spread onto TRI PETIT CASE SOYA AGAR MEDIA (by BBL Company), and incubated at 37° C. for 16 hours; the colonies grown on the culture media were scraped by a platinum loop and cultivated in 2.1% Mueller-Hington Broth (by Difco Company) respectively for several hours at 37° C. The resultant microbial cultures at logarithmic phase in 3×10^8 /ml of microbial concentration were used as the precultures.
The test media to be used in the respective tests were prepared in such a manner that: aqueous solutions in a predetermined concentration of the lactoferrin hydrolysates or the lactoferrin-derived antimicrobial peptides of (1) and (2) in Preparation of Samples (supra), as well as the samples of antibiotics of (3) (supra) were respectively sterilized with filters (by Advantec Company); then a quantity of the resultant solutions of respective samples were selectively added to a quantity of basal medium (Mueller-Hington Broth) prepared in the eventual concentration of 2.1%, thereby combinations of the samples and their concentrations in the respective test media were adjusted as specified in the respective tests. […]

[2] = tested on: Escherichia coli 0-111; assay: Test for antimicrobial activity (turbidity): growth inhibiting concentration of antibiotics; format: cell-based
Method: as §1
(§2) The test media to be used in the respective tests were prepared in such a manner that: aqueous solutions in a predetermined concentration of the lactoferrin hydrolysates or the lactoferrin-derived antimicrobial peptides of (1) and (2) in Preparation of Samples (supra), as well as the samples of antibiotics of (3) (supra) were respectively sterilized with filters (by Advantec Company); then a quantity of the resultant solutions of respective samples were selectively added to a quantity of basal medium (Mueller-Hington Broth) prepared in the eventual concentration of 2.1%, thereby combinations of the samples and their concentrations in the respective test media were adjusted as specified in the respective tests.
(§3) Antimicrobial activity was examined as follows: A quantity of the respective precultures prepared in (1) immediately above was diluted with 2.1% Mueller-Hington Broth to result in 2×10^6 /ml of microbial concentration; 100 μl aliquots of the resultant liquid were added to 100 μl aliquots of one of the test media as specified in the respective test; the resultant media were incubated at 37° C. for 16 hours; then the turbidity of the resultant culture broths were measured thereby antimicrobial activity was examined.
(§4) Components in the test and control media and eventual concentrations thereof were adjusted by properly combining 0 mg, 0.4 mg, 1.6 mg and 6.4 mg/ml of lactoferrin hydrolysate of (1) (in Preparation of Samples, supra). or 0 μg, 16 μg, 64 μg, and 256 μg/ml of lactoferrin-derived antimicrobial peptides of (2) (in Preparation of Samples, supra), and 0 μg, 0.01 μg, 0.1 μg, 1 μg, and 10 μg/ml of antibiotics of (3) (supra), then antimicrobial activity of the combined use of the components against Escherichia coli 0-111 and Staphylococcus aureus (JCM2151) as well as growth inhibiting concentrations of the antibiotics were investigated.

[3] = tested on: Staphylococcus aureus JCM2151; assay: as above; format: cell-based; details: for MIC: Staphylococcus aureus
Method: as §1, §2, §3, §4

[4] = Escherichia coli, 0111, antimicrobial peptide (Seq. ID No. 27) 0 μg/ml
[5] = Escherichia coli, 0111, antimicrobial peptide (Seq. ID No. 27) 16 μg/ml
[6] = Escherichia coli, 0111, antimicrobial peptide (Seq. ID No. 27) 64 μg/ml
[7] = Escherichia coli, 0111, antimicrobial peptide (Seq. ID No. 27) 256 μg/ml
[8] = lactoferrin hydrolysate 0 mg/ml
[9] = lactoferrin hydrolysate 0.4 mg/ml
[10] = lactoferrin hydrolysate 1.6 mg/ml
[11] = lactoferrin hydrolysate 6.4 mg/ml
[12] = JCM2151, antimicrobial peptide (Seq. ID No. 27) 0 μg/ml
[13] = JCM2151, antimicrobial peptide (Seq. ID No. 27) 16 μg/ml
[14] = JCM2151, antimicrobial peptide (Seq. ID No. 27) 64 μg/ml
[15] = JCM2151, antimicrobial peptide (Seq. ID No. 27) 256 μg/ml

Row | Structure (SMILES) | survival rate ([1]; Test 25: penicillin 1 μg/ml alone (control row)) | MIC [2, 4] | MIC [2, 5] | MIC [2, 6] | MIC [2, 7] | Growth inhibiting Concentration of antibiotics [2, 8] | Growth inhibiting Concentration of antibiotics [2, 9] | Growth inhibiting Concentration of antibiotics [2, 10] | Growth inhibiting Concentration of antibiotics [2, 11] | MIC [3, 12] | MIC [3, 13] | MIC [3, 14] | MIC [3, 15] | Growth inhibiting Concentration of antibiotics [3, 8] | Growth inhibiting Concentration of antibiotics [3, 9] | Growth inhibiting Concentration of antibiotics [3, 10] | Growth inhibiting Concentration of antibiotics [3, 11] | survival rate ([1]; Test 25: streptomycin 1 μg/ml alone (control row))
1 | CC1(C)S[C@@H]2[C@H](NC(=O)Cc3ccccc3)C(=O)N2[C@H]1C(=O)O [penicillin] | 14.2% | > 1 µg/mL | > 1 µg/mL | 1 µg/mL | 0.1 µg/mL | > 1 µg/mL | 1 µg/mL | 1 µg/mL | 0.1 µg/mL | > 1 µg/mL | 1 µg/mL | 1 µg/mL | 0.1 µg/mL | > 1 µg/mL | 1 µg/mL | 1 µg/mL | 0.1 µg/mL | 
2 | [H]/N=C(/N)N[C@H]1[C@H](O)[C@@H](O)[C@H](O[C@@H]2O[C@@H](C)[C@](O)(C=O)[C@H]2O[C@@H]2O[C@@H](CO)[C@H](O)[C@@H](O)[C@@H]2NC)[C@@H](N/C(N)=N\[H])[C@@H]1O [streptomycin] |  | > 1 µg/mL | > 1 µg/mL | 1 µg/mL | 0.01 µg/mL | > 1 µg/mL | > 1 µg/mL | 1 µg/mL | 0.01 µg/mL | > 1 µg/mL | > 1 µg/mL | 1 µg/mL | 0.01 µg/mL | > 1 µg/mL | > 1 µg/mL | 1 µg/mL | 0.1 µg/mL | 12.4%

Reference: US5656591A, “Antimicrobial agents and method for treating products therewith” (Morinaga Milk Industry Co., Ltd., priority 1992, dated 1997)
